Holding throughout (type): cell-based
One test concerns CDK4, CDK6. The experiment in a line: Immunoblot of CDK4 and CDK6 protein levels in Calu-1 cells. As to conditions: 8 hours, dose range. How it is done:
Specific exemplary heterobifunctional compounds were characterized in Calu-1, BT-549 and other cells. Cells that express cyclin D1-3 and CDK4/6 proteins were treated with heterobifunctional compounds disclosed herein at indicated concentrations for 16 hours. Cells were collected, lysed and subject to immunoblotting using an antibody specific to cyclin D1, cyclin D2, cyclin D3, CDK4, CDK6 or phosphorylated R^b proteins. Tubulin or GAPDH was used as the loading control. DMSO treatment was used as the negative control.
In a time-course study, Calu-1 cells were treated with 500 nM CPD-002, or 100 nM CPD-031 for indicated period of time prior to immunoblotting (FIG. 4A-4B).
To verify that heterobifunctional compound-mediated degradation is dependent on the binding to CDK4-cyclin D complex, we designed three negative control compounds, CPD-042, CPD-049 and CPD-380, which are derived from CPD-002 CPD-031 and CPD-343, respectively. These three control compounds bear the same DDB1 ligand and linker as their corresponding active heterobifunctional compounds but with modified warheads to impair the binding of the control compounds to CDK4. […] Two cereblon (CRBN)-recruiting reference heterobifunctional compounds, CP-10 (Su, J Med Chem, 2019; CAS No.: 2366268-80-4) and BSJ-03-123 (Brand, Cell Chem Biol, 2019; CAS No.: 2361493-16-3) were analyzed in Calu-1 cells.
A general note: Immunoblotting shows a protein as a band on a membrane.

The test system of a further test is Calu-1 cells. The experiment in a line: Anti-viability / anti-proliferation in Calu-1 cells. As to conditions: 3 days. As for the experimental part: FIG. 6 show immunoblots of cyclin D1, cyclin D2, cyclin D3, and CDK4 proteins expressed by Calu-1 cells after treatment with a dose range of control compounds CPD-042 (A), or CPD-049 (B) for 16 hours, and anti-viability curves of Calu-1 cells in the presence of CPD-002 and CPD-042 (C), or CPD-031 and CPD-049 (D).
FIG. 11A-11B show immunoblots of cyclin D1, CDK4, and CDK6 proteins expressed by Calu-1 cells after treatment with a dose range of heterobifunctional reference compound CP-10, or BSJ-03-123 for 8 hours (FIG. 11A), and anti-viability curves of Calu-1 cells in the presence of CP-10, or BSJ-03-123 for 3 days (FIG. 11B).
To verify that heterobifunctional compound-mediated degradation is dependent on the binding to CDK4-cyclin D complex, we designed three negative control compounds, CPD-042, CPD-049 and CPD-380, which are derived from CPD-002 CPD-031 and CPD-343, respectively. These three control compounds bear the same DDB1 ligand and linker as their corresponding active heterobifunctional compounds but with modified warheads to impair the binding of the control compounds to CDK4. […] However, the binding to CDK4 is not sufficient for cyclin D degradation. Two cereblon (CRBN)-recruiting reference heterobifunctional compounds, CP-10 (Su, J Med Chem, 2019; CAS No.: 2366268-80-4) and BSJ-03-123 (Brand, Cell Chem Biol, 2019; CAS No.: 2361493-16-3) were analyzed in Calu-1 cells.

The subject of a further test is Calu-1. Briefly: Cell viability assay, Calu-1. The note with it: Calu-1 cells, 96-well plates, serial dilution, 3 days. How it is done: Cells were treated with CDK4/6 inhibitors palbociclib, ribociclib, or abemaciclib, or heterobifunctional compounds CPD-002 or CPD-031 following a 9-point serial dilution for 3 days.
Cells were seeded at a density of 2,000-5,000 cells per well in 96-well assay plates and treated with test compounds following a 10-point serial dilution for 3-6 days. Cell viability was determined using the CellTiter-Lumi assay kit according to the manufacturer's instructions. The dose-response curves were determined and IC50 values were calculated using the GraphPad Prism software following a nonlinear regression (least squares fit) method. Data presented was mean±standard deviation (SD) unless otherwise indicated.

In test [1] the test system is cyclin D1, cyclin D2, cyclin D3, CDK4 and CDK6. The experiment in a line: Immunoblotting of cyclin D and CDK4/6 protein levels in Calu-1 cells. As to conditions: indicated concentrations, 8 hours. As for the experimental part: Calu-1 (FIG. 2A) or BT-549 (FIG. 2B) cells were treated with CPD-002, CPD-004, or palbociclib at indicated concentrations for 16 hours.
Calu-1 cells were treated with CPD-031 at indicated concentrations for 16 hours.
Calu-1 cells were treated with CPD-002 or CPD-031 at 500 nM or 100 nM, respectively for indicated period of time.
Calu-1 cells were pre-treated with DMSO, 20 μM MG-132 (MG), 5 μM MLN4924 (MLN) or 1 μM TAK-243 (TAK) for 2 hours, and subsequently incubated with 500 nM CPD-002, 500 nM CPD-004, or 100 nM CPD-031 for another 4 h or 2 h prior to immunoblotting (FIG. 5A-5B).
Calu-1 cells were treated with a dose range of negative control compounds CPD-042 or CPD-049 for 16 hours (FIG. 6A-6B).
Calu-1 cells were treated with reference compounds CP-10 or BSJ-03-123 at indicated concentrations for 8 hours.
(§1) Cultured cells were washed with cold PBS once and lysed in cold RIPA buffer supplemented with protease inhibitors and phosphatase inhibitors (Beyotime Biotechnology). The solutions were then incubated at 4° C. for 30 min with gentle agitation to fully lysed cells. Cell lysates were centrifuged at 13,000 rpm for 10 min at 4° C. and pellets were discarded. Total protein concentrations in the lysates were determined following BCA assays (Beyotime Biotechnology). Cell lysates were mixed with Laemmli loading buffer and heated at 99° C. for 5 min. Proteins were resolved on SDS-PAGE and visualized using Western ECL Substrate kits on a ChemiDoc MP Imaging system (Bio-Rad). Protein bands were quantitated using the Image Lab software provided by Bio-Rad.

Test [2] concerns cyclin D1, cyclin D2, cyclin D3. Briefly: Immunoblot of cyclin D protein levels in Calu-1 (and BT-549) cells. As to conditions: Calu-1 cells, 8 hours, dose range.
The target of test [3] is T1, BRD4 (Homo sapiens, UniProt O60885).
T1 construct: endogenous in cells; host or cells: Daudi, SU-DHL-4, MDA-MB-231
Briefly: Immunoblot of BRD4 protein levels in Daudi, SU-DHL-4 or MDA-MB-231 cells. The note with it: SU-DHL-4 or MDA-MB-231 cell lines, 8 hours, dose range. The source says:
Additional exemplary heterobifunctional compounds were designed to modulate the protein levels of either P300/CBP, or BRD4, and characterized in multiple cell lines. […] Taken together, DDB1 ligands conjugating with different target ligands may modulate the cellular target protein levels of cyclin D, CDK4/6, P300/CBP and BRD4.

Test [4] has as its target T1, BRD4. Briefly: Immunoblotting of BRD4 protein levels in multiple cell lines. The note with it: Daudi, SU-DHL-4, or MDA-MB-231 cells, 8 hours. As for the experimental part: Daudi, SU-DHL-4, or MDA-MB-231 cells were treated with CPD-253 at indicated concentrations for 8 hours.
as §1

In test [5] the test system is T47D cells. Briefly: Flow cytometric analysis of Annexin V/7-AAD stained T47D cells. As to conditions: 6 days. How it is done: ER^+ breast cancer T47D cells were treated with DMSO, palbociclib, heterobifunctional compound CPD-343, or negative control compound CPD-380 for 6 days at doses approximating IC50 and IC90 concentrations determined in FIGS. 10A and 13. Cells were harvested by trypsinization, staining was carried out using the Annexin V Apoptosis Detection Kit. The percentages of early apoptotic (Annexin V^+7-AAD^−, lower right quadrant), late apoptotic (Annexin V^+7-AAD^+, upper right quadrant) and necrotic cells (Annexin V-7-AAD^+, upper left quadrant) are indicated on dot plots. […] Furthermore, we developed one ER^+ breast cancer T47D model with acquired resistance after long period of treatment with 1 μM palbociclib (over IC90). Cells were deemed resistant when growing in the presence of palbo at the same rate as parental cells. Palbo resistance was determined by CellTiter-Lumi cell viability assay.
A general note: In flow cytometry, cells or beads pass a laser one at a time.

Test [6] relates to T47D palbo-resistant model. The experiment in a line: CellTiter-Lumi cell viability in T47D palbociclib-resistant model. As to conditions: 6 days; resistance acquired under 1 μM palbociclib.
Experimental: Furthermore, we developed one ER^+ breast cancer T47D model with acquired resistance after long period of treatment with 1 μM palbociclib (over IC90). […] Palbo resistance was determined by CellTiter-Lumi cell viability assay.
The next test relates to cyclin D1. The experiment in a line: Cyclin D1 percentage degradation in Calu-1 cells (immunoblotting). As to conditions: 200 nM, 16 hours. The gist of the method:
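Cyclin D1 degradation was assessed by western blot. Clarified lysates, obtained by RIPA lysis with inhibitors and centrifugation at 13,000 rpm, were normalized by BCA protein assay and separated by SDS-PAGE. Bands were detected with Western ECL Substrate on a Bio-Rad ChemiDoc MP Imaging system and quantified in Image Lab software to derive percentage degradation.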

The target of a further test is T2, CDK4 (Homo sapiens, UniProt P11802).
T2 construct: endogenous in cells; host or cells: Calu-1
Briefly: CDK4 percentage degradation in Calu-1 cells (immunoblotting). As to conditions: Calu-1 cells, 200 nM, 16 hours; read-out: CDK4 Degradation (200 nM). The gist of the method:
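CDK4 degradation was measured by immunoblotting. Cells were washed in cold PBS and lysed in RIPA buffer with inhibitors for 30 min at 4° C., then spun at 13,000 rpm to clear. After BCA protein determination, lysates were heated at 99° C. for 5 min in Laemmli buffer, resolved on SDS-PAGE, imaged on a ChemiDoc MP with ECL substrate, and band intensities quantified.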

The test system of test [7] is T47D cells. Briefly: Annexin V apoptosis flow cytometry in T47D cells. As to conditions: 6 days. How it is done: T47D cells were treated with DMSO, palbociclib, heterobifunctional compound CPD-343, or negative control compound CPD-380 for 6 days at doses approximating IC50 and IC90 concentrations as indicated. Cells were harvested by trypsinization, staining was carried out using the Annexin V Apoptosis Detection Kit.
Assays were performed on the CytoFLEX Cytometer (Beckman Coulter), and data were analyzed using CytExpert software. For cell death and apoptosis analysis, cells were harvested by trypsinization, staining was carried out using the Annexin V Apoptosis Detection Kit (BD Biosciences). Briefly, cells were resuspended in 1× binding buffer and incubated with fluorochrome-conjugated Annexin V and 7-AAD for 15 min in darkness at room temperature.

Test [8] deals with T47D palbo-resistant cells. The experiment in a line: Cell viability in T47D palbo-resistant model. As to conditions: 10-point serial dilution, 6 days. As for the experimental part:
T47D cells were cultured long-term to resistance in the presence of 1 μM Palbocicilib. Palbo resistance was determined by CellTiter-Lumi cell viability assay. T47D parental or palbo-resistant cells were treated with palbociclib, or heterobifunctional compound CPD-343 following a 10-point serial dilution for 6 days.
Calu-1, T47D, MCF7, NCI-H522, BT-549, MDA-MB-157, MDA-MB-453, MDA-MB-468, Hs578T, KURAMOCHI, OVCAR3, MIA PaCa-2, Cal-62, LNCaP, NCI-H1703, MM.1R, Daudi, SU-DHL-4, MDA-MB-231 and other cells were cultured at 37° C. with 5% CO2 in RPMI 1640 or DMEM medium supplemented with 10% fetal bovine serum. Cells were authenticated using the short tandem repeat (STR) assays. Mycoplasma test results were negative. Cell transfection was performed using PEI or Lipofectamine 2000 (Invitrogen) following the manufacturer's instructions. […]
Cells were seeded at a density of 2,000-5,000 cells per well in 96-well assay plates and treated with test compounds following a 10-point serial dilution for 3-6 days. Cell viability was determined using the CellTiter-Lumi assay kit according to the manufacturer's instructions. The dose-response curves were determined and IC50 values were calculated using the GraphPad Prism software following a nonlinear regression (least squares fit) method. […]

Structures are written as SMILES.

T2 sequence (P11802 2-303 limits assumed): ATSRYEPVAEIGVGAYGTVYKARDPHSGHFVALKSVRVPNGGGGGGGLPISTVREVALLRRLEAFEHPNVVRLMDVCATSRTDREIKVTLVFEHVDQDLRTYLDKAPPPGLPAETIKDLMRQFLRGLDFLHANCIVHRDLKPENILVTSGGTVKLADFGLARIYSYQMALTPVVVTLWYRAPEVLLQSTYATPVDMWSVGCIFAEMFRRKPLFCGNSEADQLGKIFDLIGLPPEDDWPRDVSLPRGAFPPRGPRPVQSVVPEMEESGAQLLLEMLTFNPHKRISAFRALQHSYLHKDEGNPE
T2 sequence (P24385 whole entry partner): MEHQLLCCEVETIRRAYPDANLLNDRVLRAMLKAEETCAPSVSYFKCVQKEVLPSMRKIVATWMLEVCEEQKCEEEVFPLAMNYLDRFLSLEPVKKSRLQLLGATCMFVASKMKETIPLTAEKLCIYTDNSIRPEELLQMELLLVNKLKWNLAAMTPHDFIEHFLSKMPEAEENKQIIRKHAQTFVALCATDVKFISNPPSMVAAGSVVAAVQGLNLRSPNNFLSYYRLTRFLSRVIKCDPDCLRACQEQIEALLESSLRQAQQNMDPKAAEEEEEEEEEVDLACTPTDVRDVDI
T2 sequence (Q16531 2-1140 limits assumed, further chain): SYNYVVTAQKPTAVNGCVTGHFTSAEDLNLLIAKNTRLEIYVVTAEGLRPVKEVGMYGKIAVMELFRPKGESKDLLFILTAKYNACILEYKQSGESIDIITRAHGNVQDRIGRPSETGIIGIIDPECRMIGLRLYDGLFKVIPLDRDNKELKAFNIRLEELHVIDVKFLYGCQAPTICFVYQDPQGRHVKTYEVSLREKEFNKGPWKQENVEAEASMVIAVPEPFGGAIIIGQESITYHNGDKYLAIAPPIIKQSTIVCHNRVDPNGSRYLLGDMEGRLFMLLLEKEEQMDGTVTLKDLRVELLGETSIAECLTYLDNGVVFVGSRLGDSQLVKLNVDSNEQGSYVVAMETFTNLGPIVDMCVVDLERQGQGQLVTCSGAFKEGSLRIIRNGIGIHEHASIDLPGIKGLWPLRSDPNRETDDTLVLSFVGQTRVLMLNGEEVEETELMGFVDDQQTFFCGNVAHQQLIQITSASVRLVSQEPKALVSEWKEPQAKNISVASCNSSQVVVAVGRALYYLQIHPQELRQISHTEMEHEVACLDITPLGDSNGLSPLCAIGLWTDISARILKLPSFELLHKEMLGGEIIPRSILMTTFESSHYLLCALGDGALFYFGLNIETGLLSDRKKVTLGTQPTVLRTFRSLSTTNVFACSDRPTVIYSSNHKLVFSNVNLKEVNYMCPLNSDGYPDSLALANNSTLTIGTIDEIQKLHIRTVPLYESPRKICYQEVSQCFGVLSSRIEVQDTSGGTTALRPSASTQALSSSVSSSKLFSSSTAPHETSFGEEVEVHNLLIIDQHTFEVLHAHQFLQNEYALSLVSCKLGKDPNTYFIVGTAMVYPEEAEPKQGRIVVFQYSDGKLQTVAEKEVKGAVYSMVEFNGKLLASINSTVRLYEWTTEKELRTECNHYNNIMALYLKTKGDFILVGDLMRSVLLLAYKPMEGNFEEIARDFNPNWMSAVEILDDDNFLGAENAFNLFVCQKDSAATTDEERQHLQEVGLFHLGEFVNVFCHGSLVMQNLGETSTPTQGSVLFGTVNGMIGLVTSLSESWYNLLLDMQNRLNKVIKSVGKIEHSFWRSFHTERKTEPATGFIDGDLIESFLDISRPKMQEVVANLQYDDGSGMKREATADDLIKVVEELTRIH

`CC(=O)c1c(C)c2cnc(Nc3ccc(N4CCN(CCOCCOCCOCCNC(=O)COc5cccc6c5C(=O)N(C5CCC(=O)NC5=O)C6=O)CC4)cn3)nc2n(C2CCCC2)c1=O` (stereo not shown) [BSJ-03-123, reference compound]: the “CDK4 and CDK6 protein levels” value in the test on CDK4, CDK6 was “significantly reduced”. Besides, the Calu-1 cell growth result in the test on Calu-1 cells was “did not affect cyclin D1 protein levels (FIG. 11A) or suppress Calu-1 cell growth”. In addition, the “cell viability (cellular anti-proliferation activity)” value in the test on Calu-1 is “didn't significantly suppress tumor cell viability”. In test [1], the “CDK4 and CDK6 protein levels” value is “significantly reduced CDK4 and CDK6 protein levels”; the “cyclin DC protein levels” value is given as “didn't affect cyclin DC protein levels”. In addition, in test [2], the “cyclin D1 protein levels” value is recorded as “did not affect”.

Take `Cc1nc(NC(=O)c2ccccc2NC(=O)CCCCCCCCCCCNCCNC(=O)C[C@@H]2N=C(c3ccc(Cl)cc3)c3c(sc(C)c3C)-n3c(C)nnc32)sc1C` [CPD-253, (S)-2-(12-((2-(2-(4-(4-Chlorophenyl)-2,3,9-trimethyl-6H-thieno[3,2-f][1,2,4]triazolo[4,3-a][1,4]diazepin-6-yl)acetamido)ethyl)amino)dodecanamido)-N-(4,5-dimethylthiazol-2-yl)benzamide]: the “reduction of BRD4 protein levels” value on BRD4 [3] is reported as “dramatically reduce”. On BRD4 [4], the BRD4 protein levels entry is “reduced BRD4 protein levels in a concentration-dependent manner”.

Take `CNc1ccc(C(=O)Nc2ccc(OC)nn2)c(NC(=O)CCOCCOCCNC(=O)CN2CCN(c3ccc(Nc4ncc5c(C)c(C(C)=O)c(=O)n(C6CCCC6)c5n4)nc3)CC2)c1` [CPD-343, 2-(3-(2-(2-(2-(4-(6-((6-Acetyl-8-cyclopentyl-5-methyl-7-oxo-7,8-dihydropyrido[2,3-d]pyrimidin-2-yl)amino)pyridin-3-yl)piperazin-1-yl)acetamido)ethoxy)ethoxy)propanamido)-N-(6-methoxypyridazin-3-yl)-4-(methylamino)benzamide]: the “Annexin V+ population” value with T47D cells [5] (10 nM) turned out to be 26.9%; with T47D cells [5] (200 nM), 52.6%; in the test with T47D cells [7] (10 nM), 26.9%; in the test with T47D cells [7] (200 nM) it was 52.6%. The “activity in T47D palbo-resistant model compared to parental cells” value in test [6] is reported as “remain effective”. Also, in the test with cyclin D1, the “CyclinD1 Degradation (200 nM)” value is given as “A (protein percentage degradation >=80%)”. The inhibition at 0.2 µM at CDK4 is over 80%. In addition, in test [8], the “cell viability in T47D palbo-resistant model” value is on record as “remained effective in T47D palbo-resistant model”.

(Values after patent publication US20250235543A1, “MODIFIED PROTEINS AND PROTEIN DEGRADERS” (Cullgen (Shanghai), Inc., priority 2021, published 2025).)
